Target: T1, human TRPA1 (Homo sapiens, UniProt O75762)
T1 construct: expressed in transfected cells; host or cells: CHO cells
Assay: TRPA1 FLIPR Tetra calcium influx assay in CHO cells (block of cinnamaldehyde-induced calcium influx)
Type: cell-based
Conditions: Table 2; CHO cells expressing TRPA1; agonist cinnamaldehyde 75 uM; 20 min compound incubation; Hill coefficient fixed to 1.5; read-out: hTRPA1 CHO Ca2+ AUC EVO (IC50)
Protocol: IC50s (effective concentration) of compounds on the human and rat TRPA1 channels were determined using a FLIPR Tetra instrument. CHO cells expressing TRPA1 were plated into 384-well plates, incubated overnight at 37 C, and loaded with BD calcium indicator dye for 1 hr at 37° C. followed by 15 minutes at room temperature. The assay buffer was Hank's Balanced Salt Solution (HBSS) containing 20 mM HEPES (pH readjusted to 7.4) along with 0.02% BSA.
Following dye load and plate cool down, compounds were added to the cells using FLIPR Tetra. Plates were then incubated with compounds for 20 minutes at room temperature prior to adding agonist. Following this incubation, ˜EC80 concentration of cinnamaldehyde (75 uM for human TRPA1 and 45 uM for rat TRPA1) was added to active the channels and block of cinnamaldehyde induced calcium influx was measured.
IC50s were fit with a standard Hill function, keeping the Hill coefficient (n) fixed to 1.5. Fixing the Hill coefficient will generally reduce variability of the IC50 determination. The IC50s were individually examined to make sure the MIN and MAX points were set correctly prior to validation of the results.

T1 sequence (O75762 whole entry): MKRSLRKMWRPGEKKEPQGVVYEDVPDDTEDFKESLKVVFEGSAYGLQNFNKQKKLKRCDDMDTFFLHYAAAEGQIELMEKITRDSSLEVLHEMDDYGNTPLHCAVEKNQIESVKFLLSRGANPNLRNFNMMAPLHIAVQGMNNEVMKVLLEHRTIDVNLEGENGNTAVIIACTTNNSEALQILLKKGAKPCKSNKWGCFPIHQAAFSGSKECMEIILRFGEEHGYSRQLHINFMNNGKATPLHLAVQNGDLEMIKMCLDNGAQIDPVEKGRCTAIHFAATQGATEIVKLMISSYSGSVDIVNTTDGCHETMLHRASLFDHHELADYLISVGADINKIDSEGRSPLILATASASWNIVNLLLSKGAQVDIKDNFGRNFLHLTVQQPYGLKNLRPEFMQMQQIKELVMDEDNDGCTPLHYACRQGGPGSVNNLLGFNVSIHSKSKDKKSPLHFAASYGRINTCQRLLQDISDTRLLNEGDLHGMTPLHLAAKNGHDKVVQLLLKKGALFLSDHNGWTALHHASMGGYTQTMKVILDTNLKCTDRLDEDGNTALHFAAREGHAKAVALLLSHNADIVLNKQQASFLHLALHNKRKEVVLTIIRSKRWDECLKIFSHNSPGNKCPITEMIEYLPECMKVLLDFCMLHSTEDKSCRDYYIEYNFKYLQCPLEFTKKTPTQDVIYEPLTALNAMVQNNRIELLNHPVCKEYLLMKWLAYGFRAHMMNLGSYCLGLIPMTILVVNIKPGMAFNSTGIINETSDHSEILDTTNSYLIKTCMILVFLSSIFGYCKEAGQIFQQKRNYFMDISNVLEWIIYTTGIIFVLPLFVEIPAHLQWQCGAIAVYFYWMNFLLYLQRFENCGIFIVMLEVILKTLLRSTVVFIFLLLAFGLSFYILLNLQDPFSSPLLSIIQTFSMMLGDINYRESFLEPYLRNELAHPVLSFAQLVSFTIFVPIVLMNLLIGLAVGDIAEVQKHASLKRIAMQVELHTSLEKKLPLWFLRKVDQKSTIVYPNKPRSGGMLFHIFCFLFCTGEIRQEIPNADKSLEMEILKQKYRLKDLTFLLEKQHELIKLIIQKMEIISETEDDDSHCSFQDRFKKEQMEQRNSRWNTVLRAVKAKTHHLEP

Row | IC50 | SMILES
1 | 26.2 nM | C[C@H]1[C@H](F)C[C@@H](C(=O)NCc2cn(-c3cnc(C(F)(F)F)nc3)nc2C(F)(F)F)N1S(=O)(=O)c1ccc(F)cc1 [Example 46, (2S,4R,5S)-4-fluoro-1-(4-fluorophenylsulfonyl)-5-methyl-N-((3-(trifluoromethyl)-1-(2-(trifluoromethyl)pyrimidin-5-yl)-1H-pyrazol-4-yl)methyl)pyrrolidine-2-carboxamide]
2 | 1900 nM | C[C@H]1[C@H](F)C[C@@H](C(=O)NCc2cc(OCc3ccc(F)cn3)c(F)cn2)N1S(=O)(=O)c1ccc(F)cc1 [Example 47, (2S,4R,5S)-4-fluoro-N-((5-fluoro-4-((5-fluoropyridin-2-yl)methoxy)pyridin-2-yl)methyl)-1-(4-fluorophenylsulfonyl)-5-methylpyrrolidine-2-carboxamide]
3 | 105 nM | C[C@H]1[C@H](F)C[C@@H](C(=O)NCc2cc(OCc3cncc(C(F)(F)F)c3)c(F)cn2)N1S(=O)(=O)c1ccc(F)cc1 [Example 48, (2S,4R,5S)-4-fluoro-N-((5-fluoro-4-((5-(trifluoromethyl)pyridin-3-yl)methoxy)pyridin-2-yl)methyl)-1-(4-fluorophenylsulfonyl)-5-methylpyrrolidine-2-carboxamide]
4 | 36.7 nM | C[C@H]1[C@H](F)C[C@@H](C(=O)NCc2cc(-c3cnc(C(F)(F)F)nc3)c(C3CC3)cn2)N1S(=O)(=O)c1ccc(F)cc1 [Example 49, (2S,4R,5S)-N-[[5-cyclopropyl-4-[2-(trifluoromethyl)pyrimidin-5-yl]-2-pyridyl]methyl]-4-fluoro-1-(4-fluorophenyl)sulfonyl-5-methyl-pyrrolidine-2-carboxamide]
5 | 50.5 nM | C[C@H]1[C@H](F)C[C@@H](C(=O)NCc2cn([C@H]3CC[C@H](C(F)(F)F)CC3)nc2C(F)(F)F)N1S(=O)(=O)c1ccc(F)cc1 [Example 50, (2S,4R,5S)-4-fluoro-1-(4-fluorophenyl)sulfonyl-5-methyl-N-[[3-(trifluoromethyl)-1-[4-(trifluoromethyl)cyclohexyl]pyrazol-4-yl]methyl]pyrrolidine-2-carboxamide]
6 | 15.5 nM | C[C@H]1[C@H](F)C[C@@H](C(=O)NCc2cc(-c3cnc(C(F)(F)F)nc3)ncc2C#N)N1S(=O)(=O)c1ccc(F)cc1 [Example 51, (2S,4R,5S)-N-[[5-cyano-2-[2-(trifluoromethyl)pyrimidin-5-yl]-4-pyridyl]methyl]-4-fluoro-1-(4-fluorophenyl)sulfonyl-5-methyl-pyrrolidine-2-carboxamide]
7 | 8.9 nM | C[C@H]1[C@H](F)C[C@@H](C(=O)NCc2cc([C@H]3CC[C@@H](C(F)(F)F)CC3)c(F)cn2)N1S(=O)(=O)c1ccc(F)cc1 [Example 52, (2S,4R,5S)-4-fluoro-1-(4-fluorophenyl)sulfonyl-N-[[5-fluoro-4-[4-(trifluoromethyl)cyclohexyl]-2-pyridyl]methyl]-5-methyl-pyrrolidine-2-carboxamide]
8 | 64.6 nM | C[C@H]1[C@H](F)C[C@@H](C(=O)NCc2cc([C@H]3CC[C@H](C(F)(F)F)CC3)c(F)cn2)N1S(=O)(=O)c1ccc(F)cc1 [Example 53, (2S,4R,5S)-4-fluoro-1-(4-fluorophenyl)sulfonyl-N-[[5-fluoro-4-[4-(trifluoromethyl)cyclohexyl]-2-pyridyl]methyl]-5-methyl-pyrrolidine-2-carboxamide]
9 | 6.38 nM | C[C@H]1[C@H](F)C[C@@H](C(=O)NCc2cc([C@H]3CC[C@@H](C(F)(F)F)CC3)ncc2F)N1S(=O)(=O)c1ccc(F)cc1 [Example 54, (2S,4R,5S)-4-fluoro-1-(4-fluorophenyl)sulfonyl-N-[[5-fluoro-2-[4-(trifluoromethyl)cyclohexyl]-4-pyridyl]methyl]-5-methyl-pyrrolidine-2-carboxamide]
10 | 5.89 nM | C[C@H]1[C@H](F)C[C@@H](C(=O)NCc2cc([C@H]3CC[C@H](C(F)(F)F)CC3)ncc2F)N1S(=O)(=O)c1ccc(F)cc1 [Example 55, (2S,4R,5S)-4-fluoro-1-(4-fluorophenyl)sulfonyl-N-[[5-fluoro-2-[4-(trifluoromethyl)cyclohexyl]-4-pyridyl]methyl]-5-methyl-pyrrolidine-2-carboxamide]
11 | 66.9 nM | C[C@H]1[C@H](F)C[C@@H](C(=O)NCc2cc(-c3cnc(C(F)(F)F)s3)ncn2)N1S(=O)(=O)c1ccc(F)cc1 [Example 56, (2S,4R,5S)-4-fluoro-1-(4-fluorophenyl)sulfonyl-5-methyl-N-[[6-[2-(trifluoromethyl)thiazol-5-yl]pyrimidin-4-yl]methyl]pyrrolidine-2-carboxamide]
12 | 49.4 nM | O=C(NCc1cc(N2CCC(OC(F)(F)F)CC2)ncc1F)[C@@H]1C[C@@H](F)CN1S(=O)(=O)c1ccc(F)cc1 [Example 57, (2S,4R)-4-fluoro-1-(4-fluorophenyl)sulfonyl-N-[[5-fluoro-2-[4-(trifluoromethoxy)-1-piperidyl]-4-pyridyl]methyl]pyrrolidine-2-carboxamide]

Further lines, the compound ahead of its results:

Row | SMILES | IC50
13 | COc1cnc(CNC(=O)[C@@H]2C[C@@H](F)[C@H](C)N2S(=O)(=O)c2ccc(F)cc2)cc1-c1cnc(C(F)(F)F)nc1 [Example 35, (2S,4R,5S)-4-fluoro-1-[(4-fluorobenzene)sulfonyl]-N-([5-methoxy-4-[2-(trifluoromethyl)pyrimidin-5-yl]pyridin-2-yl]methyl)-5-methylpyrrolidine-2-carboxamide] | 53.1 nM
14 | C[C@H]1[C@H](F)C[C@@H](C(=O)NCc2cc(-c3ccc(C(F)(F)F)nc3)c(F)cn2)N1S(=O)(=O)c1ccc(F)cc1 [Example 36, (2S,4R,5S)-4-fluoro-N-([5-fluoro-4-[6-(trifluoromethyl)pyridin-3-yl]pyridin-2-yl]methyl)-1-[(4-fluorobenzene)sulfonyl]-5-methylpyrrolidine-2-carboxamide] | 26 nM
15 | C[C@H]1[C@H](F)C[C@@H](C(=O)NCc2cc(-c3cnc(C(F)(F)F)nc3)nc(C3CC3)n2)N1S(=O)(=O)c1ccc(F)cc1 [Example 37, (2S,4R,5S)-N-([2-cyclopropyl-6-[2-(trifluoromethyl)pyrimidin-5-yl]pyrimidin-4-yl]methyl)-4-fluoro-1-[(4-fluorobenzene)sulfonyl]-5-methylpyrrolidine-2-carboxamide] | 5.4 nM
16 | C[C@H]1[C@H](F)C[C@@H](C(=O)NCc2ccnc(-c3cnc(C(F)(F)F)nc3)c2)N1S(=O)(=O)c1ccc(F)cc1 [Example 38, (4R,5S)-4-fluoro-1-[(4-fluorobenzene)sulfonyl]-5-methyl-N-([2-[2-(trifluoromethyl)pyrimidin-5-yl]pyridin-4-yl]methyl)pyrrolidine-2-carboxamide] | 69.4 nM
17 | C[C@H]1[C@H](F)C[C@@H](C(=O)NCc2cc(-c3cnc(C(F)(F)F)nc3)ncc2F)N1S(=O)(=O)c1ccncc1 [Example 39, (2S,4R,5S)-4-fluoro-N-((5-fluoro-2-(2-(trifluoromethyl)pyrimidin-5-yl)pyridin-4-yl)methyl)-5-methyl-1-(pyridin-4-ylsulfonyl)pyrrolidine-2-carboxamide] | 630 nM
18 | C[C@H]1[C@H](F)C[C@@H](C(=O)NCc2cn(-c3cnc(C(F)(F)F)nc3)nc2C(F)F)N1S(=O)(=O)c1ccc(F)cc1 [Example 40, (2S,4R,5S)-N-[[3-(difluoromethyl)-1-[2-(trifluoromethyl)pyrimidin-5-yl]-1H-pyrazol-4-yl]methyl]-4-fluoro-1-[(4-fluorobenzene)sulfonyl]-5-methylpyrrolidine-2-carboxamide] | 43.1 nM
19 | C[C@H]1[C@H](F)C[C@@H](C(=O)NCc2cc(-c3cnc(C(F)(F)F)nc3)ncc2F)N1S(=O)(=O)c1cccc(F)c1 [Example 41, (2S,4R,5S)-4-fluoro-N-((5-fluoro-2-(2-(trifluoromethyl)pyrimidin-5-yl)pyridin-4-yl)methyl)-1-(3-fluorophenylsulfonyl)-5-methylpyrrolidine-2-carboxamide] | 40.5 nM
20 | C[C@H]1[C@H](F)C[C@@H](C(=O)NCc2cc(-c3cnc(C(F)(F)F)nc3)nc(N3CCC3)n2)N1S(=O)(=O)c1ccc(F)cc1 [Example 42, (2S,4R,5S)-N-((2-(azetidin-1-yl)-2′-(trifluoromethyl)-4,5′-bipyrimidin-6-yl)methyl)-4-fluoro-1-(4-fluorophenylsulfonyl)-5-methylpyrrolidine-2-carboxamide] | 21.9 nM
21 | C[C@H]1[C@H](F)C[C@@H](C(=O)NCc2ccc(F)c(-c3cnc(C(F)(F)F)nc3)c2)N1S(=O)(=O)c1ccc(F)cc1 [Example 43, (2S,4R,5S)-4-fluoro-N-(4-fluoro-3-(2-(trifluoromethyl)pyrimidin-5-yl)benzyl)-1-(4-fluorophenylsulfonyl)-5-methylpyrrolidine-2-carboxamide] | 9.39 nM
22 | C[C@H]1[C@H](F)C[C@@H](C(=O)NCc2cc(-c3cnc(C(F)(F)F)nc3)ccc2F)N1S(=O)(=O)c1ccc(F)cc1 [Example 44, (2S,4R,5S)-4-fluoro-N-(2-fluoro-5-(2-(trifluoromethyl)pyrimidin-5-yl)benzyl)-1-(4-fluorophenylsulfonyl)-5-methylpyrrolidine-2-carboxamide] | 7.34 nM
23 | C[C@H]1[C@H](F)C[C@@H](C(=O)NCc2cc(F)cc(-c3cnc(C(F)(F)F)cn3)c2)N1S(=O)(=O)c1ccc(F)cc1 [Example 45, (2S,4R,5S)-4-fluoro-N-(3-fluoro-5-(5-(trifluoromethyl)pyrazin-2-yl)benzyl)-1-(4-fluorophenylsulfonyl)-5-methylpyrrolidine-2-carboxamide] | 8.05 nM

Source: patent US10179782B2, “Substituted sulfonamide compounds” (Genentech, Inc., priority 2016, dated 2019)
